The source of these data is paper PMC8297771 (PLoS Pathogens, 2021).

Entries after “also recorded” stand apart in the source; their conditions may differ. Where two headings read alike, the source gives them in different places.

The test system of series [1] is SIVmac239. In words: In vitro efficacy test against SIVmac239 in CEMx174 cells (p27). It counts as cell-based, SIV. The following applies: p27 assay. The procedure: CEMx174 cells were infected with HIV-1 primary isolate 89.6 (From infectious clone p89.6, NIH AIDS Reagent Program) at approximately at 10% of cell population determined by FACS analyses. To determine antiviral activity during virus production, STP0404 was added at concentration in the range of 0.1 nM—10 μM during media exchange at 4 hrs post-infection. DMSO was used as a negative control. Cell-free supernatants were measured for p24 antigen production, 5 days post-infection. The anti-HIV-1 efficacy of the two enantiomers of STP0404 were also determined by using the same protocol. All assays were conducted in triplicates. […] For SIVmac239, CEMx174 cells were infected with viral supernatant containing SIVmac293 at 50,000 TCID50/mL (kind gift from Dr. G. Silvestri, Emory Yerkes National Primate Research Center) with 100 μL/10^6 cells at varying concentrations of STP0404, BI224436, and Raltegravir, and the same above protocol was followed except for that p27 capsid antigen content was measured daily for 5 days post infection.
Supplementary file ppat.1009671.s004.tiff: S1 Fig In vitro efficacy tests of STP0404, BI224436 and Raltegravir against SIVmac239 in CEMx174 cell culture. CEMx174 cells were infected with SIVmac239 with various concentrations of STP0404, BI224436, and Raltegravir, and the viral production was determined by p27 assay at 5 days post infection. […]

The nature of series [2]: Microsomal stability determination. Type of series: in vitro ADME, animal and human. The following applies: human, liver microsomes; all tested species; read-out: microsomal stability T1/2. The procedure:
A liver microsome (LM) stability assay was […] of incubation at 0, 10, 20, 30 and 60 min with a […] STP0404 initial concentration. All plates were shaken and centrifuged at 3200 x g for 20 mins. Then 100 μL of supernatant was taken from each well and diluted with 300 μL pure water before analyzed by LC/MS/MS. Animal and human liver microsomes were purchased from Wuxi AppTec, Xenotech or Corning and stored in a freezer (lower than -60°C) before use (Wuxi AppTec, China).

Series [3] is described as follows: In vivo pharmacokinetics in beagle dogs. The following applies: male, plasma, Dog. As for the experimental part: Study design: […]). Group 1 was dosed with STP0404 at 1 mg/kg by single intravenous administration. Groups 2 to 4 were dosed with STP0404 at 20, 40 and 80 mg/kg, respectively, by single oral administration. The vehicle used for IV study was DMSO: PEG400: […] Blood samples were collected at 0.0833, 0.25, 0.5, 1, 2, 4, 8, 12 (only for PO groups) and 24 hrs post-dose for Groups 1 to 4. STP0404 concentrations in plasma samples were determined by LC-MS/MS. Preclinical Dog pharmacokinetics study (Study no. 400751-2015020201-DPK): A total of 6 male Beagle dogs were divided into two groups (3 animals/group). Following single STP0404 2 mg/kg oral and intravenous administration to Beagle Dogs, STP0404 concentration was determined in plasma, and pharmacokinetic parameters were calculated. […] The concentrations of STP0404 in plasma were determined by using a LC/MS/MS method.

Series [4] is described as follows: Four-week oral dose toxicology study in rats (GLP). Further details: species or system SD rats. The following applies: Sprague-Dawley, rat, in vivo, read-out: no-observed-adverse-effect level (NOAEL). As for the experimental part:
STP0404 was administered orally to 10 or 15 SD rats/sex/group at dose levels of 100, 300 and 600 mg/kg/day for 4 weeks to evaluate its potential toxicity. The reversibility of any effects was also assessed following a 2-week untreated recovery period. Control animals (15 animals/sex) received the vehicle, 0.5 w/v% methylcellulose solution, in a similar manner for comparison. In addition, plasma STP0404 concentrations were determined using TK satellite animals (3 animals/sex/group) to evaluate systemic exposure of the animals to the test article. (Study no. YL18402). STP0404 was administered orally as a capsule to 4 or 6 dogs/sex/group at dose levels of 30, 60 and 90 mg/kg/day for 4 weeks to evaluate its potential toxicity. Control animals (6 animals/sex) received empty gelatin capsules in a similar manner for comparison. The reversibility of any effects was also assessed following a 2-week untreated recovery period (2 animals/sex/group for the control and 90 mg/kg/day groups). In addition, plasma STP0404 concentrations were determined using all tested animals (including control group) to evaluate systemic exposure of the animals to the test article (Study no. YL18403). The test was performed according to the Standard Operating Procedures (SOP) the Good Laboratory Practice (GLP) system of the INA Research.

Turning to `Cc1nc2c(c(C)c(C)n2Cc2cnn(C)c2)c(-c2ccc(Cl)cc2)c1[C@H](OC(C)(C)C)C(=O)O` [STP0404], the “inhibition of SIVmac239” value in series [1] was “did not inhibit; also recorded: failed to inhibit”. For the same compound, the half-life at 1 μL in series [2] was above 2.22 h. In series [3] (iv, 2 mg/kg (i.v)), this compound had an exposure (AUC) of 9.26 µM·h and a half-life of 6.11 h. In series [3] (po, 2 mg/kg (p.o)), this compound showed an AUC of 4.68 µM·h, a Cmax of 3.98 µM and a half-life of 6.9 h. Besides, the bioavailability in series [3] (po, 2 mg/kg (p.o), read-out: Ft (oral bioavailability)) was 50.6%. Besides, the NOAEL at 4 weeks in series [4] (female rats) worked out at 600 mg/kg/day. Besides, the NOAEL at 4 weeks in series [4] (male rats) turned out to be 300 mg/kg/day.
